Measurements from patent publication US20210113696A1, “IONIC LIQUID COMPOSITIONS FOR TREATMENT OF ROSACEA” (CAGE BIO INC., priority 2018, published 2021).

Assays:
[1] = Conductivity measurement in solvents, solvent blends and gel bases; format: physicochemical
Procedure: Conductivity in mixtures of a solvent in combination with choline and geranic acid were done separately. […]
Ethanol: Samples were made by first starting with 5 grams of each raw material; geranic acid first then repeated with choline (bicarbonate). In summary 1-3 grams of […] was added to the raw material being tested and mixed. A visual observation was made along with a conductivity measurement. […]
(§1) The solvents investigated included: water, propylene glycol, glycerin, PEG400, ethanol, diisopropyl adipate, mineral oil, propylene glycol/ethanol/water, and glycerin/PEGG400/water. […] Observations were taken at each concentration. Conductivity measurements were taken at each titrated point for information only at this stage. Scales on subsequent graphs are appropriate for each solvent's values.
(§2) A visual observation was made along with a conductivity measurement. The process was continued until ˜25 grams of product was reached. The resulting product was stored for later evaluation.
as §2, §2, §2, §2
A visual observation was made along with a conductivity measurement. The process was continued until ˜25 grams of product was reached. The resulting product was stored for later evaluation. […]
(§3) The conductivity is shown in FIG. 32 and the appearance is described in Table 28.

[2] = Visual observation of appearance (solubility, miscibility) in solvents, solvent blends and gel bases; format: physicochemical
Procedure: Conductivity in mixtures of a solvent in combination with choline and geranic acid were done separately.
Propylene glycol: Samples were made by first starting with 5 grams of each raw material; geranic acid first then repeated with choline (bicarbonate). In summary 1-3 grams of propylene glycol was added to the raw material being tested and mixed. A visual observation was made along with a conductivity measurement.
(§4) Ethanol: Samples were made by first starting with 5 grams of each raw material; geranic acid first then repeated with choline (bicarbonate). In summary 1-3 grams of propylene glycol was added to the raw material being tested and mixed. A visual observation was made along with a conductivity measurement.
as §4, with “Diisopropyl adipate:” for “Ethanol:”, “summary,” for “summary”
as §1
No conductivity measurements were taken.
as §2, §2, §2, §2, §2, §2
1-3 grams of water was added and mixed. A visual observation was made along with a conductivity measurement. The process was continued until ˜16 grams of product was reached. The resulting product was stored for later evaluation.
1-3 grams of water was added and mixed. A visual observation was made along with a conductivity measurement. The process was continued until ˜20 grams of product was reached. The resulting product was stored for later evaluation. […]
A similar experiment with the propylene glycol formulation was performed. The results are shown in Table 23, Table 24, and FIG. 28.
as §3

[3] = 19% geranic acid, 81% ethanol 200 proof
[4] = 20% geranic acid, 80% ethanol 200 proof
[5] = 22% geranic acid, 78% ethanol 200 proof
[6] = 24% geranic acid, 76% ethanol 200 proof
[7] = 26% geranic acid, 74% ethanol 200 proof
[8] = 29% geranic acid, 71% ethanol 200 proof
[9] = 33% geranic acid, 67% ethanol 200 proof
[10] = 36% geranic acid, 64% propylene glycol
[11] = 38% geranic acid, 62% ethanol 200 proof
[12] = 45% geranic acid, 55% ethanol 200 proof
[13] = 56% geranic acid, 44% ethanol 200 proof
[14] = 56% geranic acid, 44% propylene glycol
[15] = 71% geranic acid, 29% ethanol 200 proof
[16] = 71% geranic acid, 29% propylene glycol
[17] = 71.43% geranic acid, 28.57% diisopropyl adipate
[18] = 83% geranic acid, 17% ethanol 200 proof
[19] = 83% geranic acid, 17% propylene glycol
[20] = 83.33% geranic acid, 16.67% diisopropyl adipate
[21] = 100.00% geranic acid, 0.00% diisopropyl adipate
[22] = 100% geranic acid, 0% ethanol 200 proof
[23] = 100% geranic acid, 0% propylene glycol

CC(C)=CCC/C(C)=C/C(=O)O [Geranic Acid, 3,7-dimethyl-2,6-octadienoic acid]
Conductivity [1, 3]: 0.00064 mS/cm
Conductivity [1, 4]: 0.00064 mS/cm
Conductivity [1, 5]: 0.00066 mS/cm
Conductivity [1, 6]: 0.00068 mS/cm
Conductivity [1, 7]: 0.00072 mS/cm
Conductivity [1, 8]: 0.00074 mS/cm
Conductivity [1, 9]: 0.00083 mS/cm
Conductivity [1, 10]: 0.00009 mS/cm
Conductivity [1, 11]: 0.00061 mS/cm
Conductivity [1, 12]: 0.00048 mS/cm
Conductivity [1, 13]: 0.00022 mS/cm
Conductivity [1, 14]: 0.00008 mS/cm
Conductivity [1, 15]: 0.00003 mS/cm
Conductivity [1, 16]: 0.00008 mS/cm
Conductivity [1, 17]: 0 mS/cm
Conductivity [1, 18]: 0.00001 mS/cm
Conductivity [1, 19]: 0.00000 mS/cm
Conductivity [1, 20]: 0 mS/cm
Conductivity [1, 21]: 0 mS/cm
Conductivity [1, 22]: 0.00000 mS/cm
Conductivity [1, 23]: 0.00000 mS/cm
contribution to the overall conductivity ([1]; mixtures with solvent): effectively zero
Appearance [2, 3]: Clear solution
Appearance [2, 4]: Clear solution
Appearance [2, 5]: Clear solution
Appearance [2, 6]: Clear solution
Appearance [2, 7]: Clear solution
Appearance [2, 8]: Clear solution
Appearance [2, 9]: Clear solution
Appearance [2, 10]: Clear solution
Appearance [2, 11]: Clear solution
Appearance [2, 12]: Clear solution
Appearance [2, 13]: Clear solution
Appearance [2, 14]: Clear solution
Appearance [2, 15]: Clear solution
Appearance [2, 16]: Clear solution
Appearance [2, 17]: Clear solution
Appearance [2, 18]: Clear solution
Appearance [2, 19]: Clear solution
Appearance [2, 20]: Clear solution
Appearance [2, 21]: Clear solution
Appearance [2, 22]: Clear solution
Appearance [2, 23]: Clear solution

C[N+](C)(C)CCO [Choline Bicarbonate, choline bicarbonate]
miscibility with diisopropyl adipate [2]: not miscible
